Laboratory results: US12558428B2, “Heterobifunctional compounds and their use in treating disease” (Halda Therapeutics OpCo, Inc., priority 2024, dated 2026)

Legend:
Format in all cases: cell-based
[1] = system: MCF7 cells (ATCC #HTB-22); assay: Cellular growth inhibition assay, MCF7 cells purchased from ATCC; settings: Homo sapiens, MCF7, 144 h, Table 8-A; MCF7 cells purchased from ATCC; six days; CellTiter-Glo; read-out: GI50
How it was run: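 GI50 values come from a four-parameter fit of CellTiter-Glo 2.0 luminescence after six days of compound exposure at 37° C. Seeding density depended on the source: 225 cells/well for ECACC MCF7, 1,500 for ATCC. Medium was RPMI 1640 with 10% FBS and 0.2 U/ml insulin.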

[2] = system: T-Rex 293 cells having increased expression of estrogen receptor alpha protein; assay: Cellular growth inhibition assay, T-Rex 293 cells, (+) doxycycline; settings: T-REx-293, 72 h, T-Rex 293 cells with doxycycline-induced ERα expression, 72 hours, CellTiter-Glo 2.0; read-out: (+) Dox TRex ERa (GI50)
How it was run: (§1)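 Growth of a doxycycline-inducible ERα T-Rex 293 clone, induced or not with 3 ng/mL doxycycline, was followed for 72 h with test compound in hormone-depleted medium. CellTiter-Glo luminescence gave GI50.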

[3] = system: T-Rex 293 cells lacking increased expression of estrogen receptor alpha protein; assay: Cellular growth inhibition assay, T-Rex 293 cells, (−) doxycycline; settings: T-REx-293, 72 h, T-Rex 293 cells without doxycycline, 72 hours, CellTiter-Glo 2.0; read-out: (−) Dox TRex ERa (GI50)
How it was run: as §1

GI50 [1]	SMILES	GI50 [2]	GI50 [3]
50 to 500 nM	CCN(CCOCCOCCNC(=O)C[C@@H]1N=C(c2ccc(Cl)cc2)c2c(sc(C)c2C)-n2c(C)nnc21)CCOc1ccc(C(=O)c2c(-c3ccc(O)cc3)sc3cc(O)ccc23)cc1 [I-3, (S)-2-(4-(4-chlorophenyl)-2,3,9-trimethyl-6H-thieno[3,2-f][1,2,4]triazolo[4,3-a][1,4]diazepin-6-yl)-N-(2-(2-(2-(ethyl(2-(4-(6-hydroxy-2-(4-hydroxyphenyl)benzo[b]thiophene-3-carbonyl)phenoxy)ethyl)amino)ethoxy)ethoxy)ethyl) acetamide]	50 to 500 nM	500 to 2500 nM
50 to 500 nM	CCN(CCCCCCCCNC(=O)C[C@@H]1N=C(c2ccc(Cl)cc2)c2c(sc(C)c2C)-n2c(C)nnc21)CCOc1ccc(C(=O)c2c(-c3ccc(O)cc3)sc3cc(O)ccc23)cc1 [I-2, (S)-2-(4-(4-chlorophenyl)-2,3,9-trimethyl-6H-thieno[3,2-f][1,2,4]triazolo[4,3-a][1,4]diazepin-6-yl)-N-(8-(ethyl(2-(4-(6-hydroxy-2-(4-hydroxyphenyl)benzo[b]thiophene-3-carbonyl)phenoxy)ethyl)amino)octyl)acetamide]	50 to 500 nM	50 to 500 nM
